For orientation: Ki means a dissociation constant, usually derived from enzyme kinetics or from competition with a known ligand. As a reminder, the EC50 is the concentration that produces a half-maximal response.

Consider six compounds from patent publication US9394343B2, “Appetite stimulating protein” (The Regents of the University of California, priority 2011, dated 2016).

Bridge positions count the residues as written; N and C are the ends. Ends that are not written are not given here. Peptide text beside a SMILES is read from it.

The target of data set [1] is T1, hMC3R (Homo sapiens, UniProt P41968).
T1 construct: expressed in transfected cells; host or cells: HEK-293
To be noted: cited from earlier work.

In a further data set the target is T2, hMC4R (Homo sapiens, UniProt P32245).
T2 construct: expressed in transfected cells; host or cells: HEK-293
To be noted: cited from earlier work.

The conditions of data set [2]: cooperative folding, Jackson et al., 2002; cited from earlier work.
For data set [3] the following is noted: cited from earlier work; for Feeding response compared with AgRP: literature.
In a further data set the test system is male Long-Evans rats. Nature of the data set: Feeding and body mass after single third cerebral ventricle (ICV) injection. The conditions noted are these: single 1.0 nmol ICV dose; for Initial (24 hour) feeding response, in words: first 24 hours. In kind it is in vivo, rat.
Data set [4] has as its target T1, hMC3R. To be noted: cAMP, NDP-MSH stimulated; data adapted from the literature (footnote c); read-out: EC50, MC3R; cited from earlier work.

T1 sequence (P41968 whole entry): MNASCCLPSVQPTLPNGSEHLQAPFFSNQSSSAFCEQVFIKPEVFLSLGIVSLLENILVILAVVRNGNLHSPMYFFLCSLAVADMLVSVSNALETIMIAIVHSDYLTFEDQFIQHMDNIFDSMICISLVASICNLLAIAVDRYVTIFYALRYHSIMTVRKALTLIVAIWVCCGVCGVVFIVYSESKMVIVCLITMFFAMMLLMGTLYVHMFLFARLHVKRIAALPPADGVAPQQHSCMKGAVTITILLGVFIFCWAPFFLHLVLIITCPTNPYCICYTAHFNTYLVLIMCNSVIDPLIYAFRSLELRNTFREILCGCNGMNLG
T2 sequence (P32245 whole entry): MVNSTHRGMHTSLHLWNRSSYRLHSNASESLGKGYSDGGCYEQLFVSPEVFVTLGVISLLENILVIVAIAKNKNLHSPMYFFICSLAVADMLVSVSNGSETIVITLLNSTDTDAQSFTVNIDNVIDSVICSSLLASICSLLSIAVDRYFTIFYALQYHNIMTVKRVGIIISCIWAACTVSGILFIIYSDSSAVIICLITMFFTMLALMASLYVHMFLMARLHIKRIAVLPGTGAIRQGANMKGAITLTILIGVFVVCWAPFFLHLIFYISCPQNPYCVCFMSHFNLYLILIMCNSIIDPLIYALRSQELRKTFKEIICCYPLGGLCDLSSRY

With `CC(=O)N[C@H]1CSSC[C@@H]2NC(=O)[C@@H]3CSSC[C@@H](C(=O)N[C@@H](CCCNC(=N)N)C(N)=O)NC(=O)[C@H](Cc4ccc(O)cc4)NC(=O)[C@@H]4CSSC[C@H](NC(=O)[C@H](Cc5ccc(O)cc5)NC(=O)[C@H](CSSC[C@H](NC(=O)[C@H](CO)NC(=O)[C@H](CCC(=O)O)NC(=O)[C@H](Cc5c[nH]cn5)NC(=O)[C@H](CC(C)C)NC(=O)[C@H](CCCNC(=N)N)NC(=O)[C@H](C(C)C)NC1=O)C(=O)N[C@@H](CC(C)C)C(=O)NCC(=O)N[C@@H](CCC(N)=O)C(=O)N[C@@H](CCC(N)=O)C(=O)N[C@@H](C(C)C)C(=O)N1CCC[C@H]1C(=O)N3)NC(=O)[C@H]([C@@H](C)O)NC(=O)[C@H](C)NC(=O)[C@H](C)NC(=O)[C@@H]1CCCN1C(=O)[C@H](CC(=O)O)NC2=O)C(=O)N[C@@H](CCCNC(=N)N)C(=O)N[C@@H](Cc1ccccc1)C(=O)N[C@@H](Cc1ccccc1)C(=O)N[C@@H](CC(N)=O)C(=O)N[C@@H](C)C(=O)N[C@@H](Cc1ccccc1)C(=O)N4` [AgRP(87-120)] (Ac-CVRLHESCLGQQVPCCDPAATCYCRFFNAFCYCR-NH2; disulfide 1-16, 8-22, 15-33, 24-31 (inferred); C-terminus assumed), the “Dissociation constant at Mc3R compared with mature AgRP(83-132)” value on hMC3R [1] (previous study) was “equivalent to mature AgRP(83-132)”. In addition, the “Dissociation constant at Mc4R compared with mature AgRP(83-132)” value at hMC4R (previous study) is reported as “equivalent to mature AgRP(83-132)”. Also, in data set [2], the Folding stability result was “indistinguishable from AgRP(83-132)”.

For MTII, the “Feeding after injection following AgRP administration” value in data set [3] (injected after AgRP) is “transiently reduces feeding”.

For the compound SHU9119, in data set [3], the “Feeding response compared with AgRP” value is given as “long-term response similar to AgRP”.

Turning to “mature wild type human Agouti-Related Protein, SSRR-CVRLHESCLGQQVPCCDPCATCYCRFFNAFCYC-RKLGTAMNPCSRT (SSRRCVRLHESCLGQQVPCCDPCATCYCRFFNAFCYCRKLGTAMNPCSRT; not fully specified (bridges); ends and bridges not checked; listed as Homo sapiens) [AgRP(83-132)]”, in the data set on male Long-Evans rats, the “Feeding increase over control at three or four days after injection” value is “about 30%” and the “Initial (24 hour) feeding response, in words” value was “the most potent”. Besides, the “Initial (24 hour) feeding response, in words” value with male Long-Evans rats (listed as AgRP) is listed as “greatly stimulate feeding”. Moreover, in the data set on male Long-Evans rats (first 24 hr), the “Feeding increase over control after one day” value is reported as roughly 80%. The Ki in the data set with hMC4R (displacement of 125I-NDP-MSH, data adapted from the literature (footnotes a, d), read-out: Ki, MC4R) was 11 ± 0.7 nM.

Turning to neuropeptide Y [neuropeptide Y (NPY)], in data set [3], the “Feeding response compared with AgRP” value is “feeding returns to baseline after 24 hours”.

“truncated AgRP lacking the N-terminal SSRR segment: CVRLHESCLGQQVPCCDPCATCYCRFFNAFCYC-RKLGTAMNPCSRT [AgRP(87-132)]”: the inhibition constant (Ki) with hMC3R [1] (displacement of 125I-NDP-MSH, data adapted from the literature (footnote a), read-out: Ki, MC3R) was 5.2 ± 0.7 nM. For the same compound, the EC50 with hMC3R [4] was 8.9 ± 0.2 nM.
